Experimental data: patent publication US20240207308A1, “METHOD FOR CULTURING DENDRITIC CELLS” (NANOFAENTECH CO., LTD., priority 2021, published 2024)

Key:
Type in all cases: cell-based, mouse
[1] = system: spleen dendritic cells; test: Flow cytometry of CD86, MHC-II, CD80, CD40 on cultured spleen dendritic cells (self-activation)
Protocol: Mouse spleen dendritic cells were obtained by adding EDTA-BSS (Balanced Salt Solution) buffer and collagenase solution (DMEM containing 100 units of collagenase type IV, medium containing low glucose) to spleens of female C57BL/6 mice and cutting it with surgical scissors, mixing the same with 6 mL of collagenase treatment solution, and incubating the mixture for 30 minutes. The separated whole spleen tissue was filtered using a 70 μm cell strainer (Falcon), followed by centrifugation at 1800 rpm for 5 minutes thus to separate the cells. Red blood cells were removed by adding red blood cell lysis buffer (Sigma-Aldrich) to the cells and washed twice with RPMI-1640 medium containing 10% fetal bovine serum (FBS). Dendritic cells were reacted with CD11c^+ antibody-bound microbeads and isolated using CD11c Microbeads Ultrapure (MACS, Milteni Biotec, USA).
In FIG. 2, in order to determine whether self-activation occurs when primary dendritic cells isolated from the spleen are cultured, dendritic cells were dispensed in a 24-well plate at 2×10^5/mL, and after culturing for 6 hours in RPMI-1640 medium at 37° C. under 5% CO2 condition, the expression levels of MHC-II, CD86, CD80 and CD40 were analyzed on the surface of dendritic cells using a flow cytometer (MACSQuant VYB flow cytometer, Miltenyi Biotec). Results measured using a flow cytometer were analyzed using FlowJo v10 (Tree Star, Ashland). The expression levels of CD86, CD80 and CD40 were shown as the percentage of cells stained with CD11c, and the expression level of MHC-II was shown as mean fluorescence intensity (MFI), which is the mean fluorescence intensity of fluorescence.
In FIG. 7, when culturing spleen dendritic cells, each of the prepared peptides was added at a concentration of 200 μg/mL and the expression level of CD86 was measured 6 hours after culture. When each peptide was used alone for treatment, the expression of CD86 was not inhibited in spleen dendritic cells. […] Compared to when the cells were treated with these three kinds of peptides, the expression was not inhibited even when the two kinds of peptides were used together for treatment. * indicates statistical significance as P<0.05 or less compared to the P1, P1-2, and P2-1 conditions.
In FIG. 9, peptides containing P1 and P2 and amino acids of these peptides as well as P3 peptide in a combination of three types were added to the spleen dendritic cell culture medium, and after culturing for 6 hours, the expression level of CD86 was measured by flow cytometry.
In FIG. 24, different concentrations of LP1, LP2 and LP3 were added to reach a concentration of 800 μg/mL, and spleen dendritic cells (2×10^5/mL) were cultured for 6 hours or 24 hours, and the CD86 expression level was measured by flow cytometry (MACSQuant VYB flow cytometer, Miltenyi Biotec). The measured results were analyzed using FlowJo v10 (Tree Star, Ashland).
In FIG. 25, when spleen primary dendritic cells were dispensed at 2×10^5/mL and cultured for 24 hours while scrambled peptides of S-LP1, S-LP2 and S-LP3 were each added at a concentration of 800 μg/mL, the increase in the expression of CD86 was not inhibited. Further, the expression of CD86 was not reduced even when the scrambled peptides S-P1, S-P2 and S-P3 were simultaneously treated at a concentration of 600 μg/mL, respectively.

[2] = system: spleen dendritic cells; test: CD86 expression of spleen dendritic cells after immunostimulant (LPS or poly (I:C)), flow cytometry
Protocol: In FIG. 14, the expression level of CD86 in spleen primary dendritic cells cultured for 24 hours was measured similarly to the expression level of CD86 increased when E. coli LPS as an activation-inducing agent was used for treatment at a concentration of 1 μg/mL. […] CD86 expression of spleen dendritic cells cultured with addition of fibronectin was not increased even when 1 μg/mL LPS was treated.
In FIG. 20, compared to LPS binding to Toll-like receptor-4 of immune cells and inflammatory cells including dendritic cells, when poly (I:C) (polyinosinic:polycytidylic acid), which is similar to double-stranded RNA in terms of structure and is known as an immunostimulant that binds to Toll-like receptor-3, was administered at a concentration of 50 μg/mL, the increase in the expression of CD86 in spleen dendritic cells was inhibited when cultured with addition of fibronectin.

[3] = system: spleen dendritic cells and T cells; test: ELISA of cytokines after 4 days co-culture of spleen dendritic cells and allogeneic T cells; details: dendritic cells activated with LPS and poly (I:C), co-culture 4 days
Protocol: Since the main role of activated dendritic cells is to induce antigen-specific T-cell activation and proliferation according to the stimulatory properties, it was investigated whether self-activated dendrite cells after culturing and dendritic cells activated with LPS after culturing with addition of peptides can induce T cell proliferation by mixed lymphocyte reaction (MLR) test. The spleen dendritic cells isolated from C57B/L6 mice were self-activated for 24 hours, otherwise, when cultured with addition of peptides or fibronectin, the cells were treated with LPS and activated. Spleen T cells from Balb/c mice were isolated using a CD4^+/CD8^+ T cell isolation kit (Miltenyi Biotec, Bergisch-Gladbach, Germany) and MACS column (Miltenyi Biotec), followed by 10 μM CFSE staining (Molecular Probes; Thermo Fisher Scientific Inc., USA). The activated dendritic cells and CFSE-stained T cells were co-cultured at a ratio of 1:20 for 4 days, and the T cell proliferation level was measured as a percentage of cells with decreased CFSE. […] In FIG. 22, the amount of cytokines secreted after co-culture of spleen dendritic cells and T cells for 4 days was measured by ELISA method. […]

[4] = system: CD8+ T cells from OT-I transgenic mice; test: Proliferation of CFSE-stained OT-I CD8+ T cells co-cultured with OVA peptide-treated spleen dendritic cells; details: LPS-stimulated dendritic cells, co-culture 1:20, 4 days
Protocol: The spleen dendritic cells (2×10^6/mL) were self-activated in a 96-well plate for 24 hours, or self-activation was inhibited by adding a linker peptide, and then either not treated with LPS or stimulated with LPS for 24 hours. Dendritic cells were cultured with 10 μM ovalbumin (OVA) peptide SIINFEKL (InvivoGen, San Diego, California, USA) for 1 hour. CD8^+ T cells were isolated from OT-I transgenic mice using a CD8 T cell isolation kit (Miltenyi Biotec) and fluorescence-stained with 10 μM carboxyfluorescein succinimidyl ester (CFSE) for 10 minutes. After co-culture of CD8^+ T cells (1×10^5) and DCs (5×10^3) treated with OVA peptide at a ratio of 1:20 for 4 days, a proliferation level of T cells was measured in percentage of cells that are negative for CFSE fluorescence-staining.

## fibronectin
[1]; 200 μg/mL (laminin 200 μg/mL or higher), cultured 6 hours
  expression level of CD86 or MHC-II (self-activation): self-activation did not occur
[1]; 200 μg/mL, cultured 6 hours
  expression of CD86 and MHC-II as well as CD80 and CD40: not increased
[1]; cultured 6 hours
  concentration most effective for self-activation of spleen dendritic cells: 200 µg/mL
[1]; cultured 6 hours or 24 hours, peptides 200 μg/mL each
  expression of MHC-II, CD80 and CD40 in addition to CD86: significantly inhibited
[2]; cultured 24 hours with the substance, 1 μg/mL LPS
  expression of CD86 by LPS stimulation: not increased
[2]; poly (I:C) 50 μg/mL, 24 hours, peptides 200 μg/mL each
  increase in the expression of CD86 by poly (I:C): inhibited
[3]
  secretion of IFN-γ, IL-6, TNF-α and IL-5: extremely low
[4]
  T cell proliferation (cells negative for CFSE): very weak ability to induce T cell proliferation
